Data on 1 compound can be found in patent US20030171598A1, “Aminoacid-iodine complex” (priority 2001, published 2003).

The experiment concerns vibrio splendidus. The note with it: Penaeus vannamei pond. An excerpt: 600,000 of Penaeus vannamei were raised in a pond with 1.1M depth and 1.6 hectare. […] At the next night, the pond was sterilized using the product prepared according to Example 5 with the content of iodine of 0.01 ppm.

As to `CSCC[C@H](N)C(=O)O.I` [Example 5, methionine iodine], the killing vibrio splendidus entry (content of iodine 0.01 ppm) is “very effective”. Besides, the “time after which glimmering in the pond has disappeared” value (sterilized at content of iodine of 0.01 ppm) is 40 min.
